Experimental data taken from publication PMC6804113, “Cyclic Peptides Acting as Allosteric Inhibitors of Human Thymidylate Synthase and Cancer Cell Growth” (Molecules, 2019).
Read-outs that look alike come from different tables or passages of the source. Starred links: 1 amine or outer side, 2 acyl side, 3 side chain; linkers in the order of their positions; H or OH if unused. Positions of bridges follow the written chain, without caps; N, C: chain ends. Non-standard residues stand in square brackets, D forms with d. Residues, ends and D or L forms follow the SMILES beside them. Cysteamide = C(CS[*:3])N[*:1]

How the values were obtained:
[1] = disulfide bond, DMSO/TFA, H2O/DMSO/TFA 75:25:0.1
[2] = biological target: T1, recombinant human thymidylate synthase (hTS) (Homo sapiens, UniProt P04818); assay: hTS inhibition assay (spectrophotometric, absorbance at 340 nm); assay type: biochemical
T1 construct: made in house
T1 sequence (P04818 whole entry): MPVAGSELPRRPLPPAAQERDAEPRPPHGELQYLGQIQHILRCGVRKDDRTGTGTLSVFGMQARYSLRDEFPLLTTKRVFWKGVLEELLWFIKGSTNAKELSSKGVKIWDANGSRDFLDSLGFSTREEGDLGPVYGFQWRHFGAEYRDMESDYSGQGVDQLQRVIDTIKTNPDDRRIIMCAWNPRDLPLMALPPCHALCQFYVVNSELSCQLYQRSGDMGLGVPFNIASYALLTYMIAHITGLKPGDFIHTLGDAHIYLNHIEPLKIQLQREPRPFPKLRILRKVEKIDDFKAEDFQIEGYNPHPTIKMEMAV
Procedure: hTS was purified as previously reported. The enzyme solution was thawed the day of the experiment and the enzyme concentration was determined by UV−Vis spectroscopy (Varian Cary 100, Agilent, Santa Clara, CA, USA) using ε280 = 89000 M^−1 cm^−1 and Mr = 74 229. The thawed protein solution was kept constantly at 4 °C. In this condition, the enzyme was able to reproduce normal kinetic activity values (KM dUMP = 10−12 μM, KM mTHF = 4−6 μM, kcat = 0.8−0.9 s^−1). The peptide solution was mixed or vortexed in order to help solubilization; the precise concentration was determined through UV−Vis spectroscopy. A stock solution of mTHF was prepared in carbonate buffer. The stock was prepared in the range of 5 to 6 mM. A stock solution of dUMP was prepared in bidistilled water in the range of 10−12 mM. Peptide inhibitors were tested without incubation with hTS in […], at 25 °C. A 1 mL amount of assay buffer consisted of 50 mM TES, pH 7.4, containing 25 mM MgCl2, 6.5 mM HCHO, 1 mM EDTA, 75 mM β-mercaptoethanol (β-ME), 0.120 mM dUMP, and 0.060 mM mTHF. Following the addition of the enzyme (300 nM) and inhibitor mixture, the absorbance was monitored at 340 nm in a UV−Vis spectrophotometer for 3 min. In the control sample, an equal aliquot of enzyme alone was added. hTS activity inhibition percentages (I%) values were measured at 0.100−3000 µM concentration of inhibitor. […] The kinetic inhibition pattern was studied for compound 7 [12]. The inhibition values are expressed as mean ± SEM; n = 3.

[3] = biological target: T1, recombinant human thymidylate synthase (hTS); assay: as above; assay type: biochemical; remark: listed apart in the source
IGROV-1 cells = assay: Cytotoxicity, crystal violet cell growth assay, peptides transfected with SAINT-PhD; assay type: cell-based, human; details: at 10 and 25 µM, ranking among the 10 cPs, SAINT-PhD delivery
Procedure: The IGROV-1, A2780, and A2780/CP human ovarian cancer cell lines were grown as monolayer in RPMI 1640 medium containing 10% heat-inactivated fetal bovine serum and 50 µg/mL gentamycin sulfate (Euroclone, Devon, UK). Cultures were equilibrated with humidified 5% CO2 in air at 37 °C. The cDDP-resistant variant A2780/CP cell line, derived from the parent A2780 cell line, is about 10-fold resistant to cDDP and was developed by monthly exposure to cDDP, followed by chronic exposure to stepwise increases in cDDP concentration. All studies were performed in Mycoplasma negative cells, as routinely determined with the MycoAlert Mycoplasma detection kit (Lonza, Walkersville, MD, USA).
Treatment with each peptide was performed according to the standard transfection protocol of the SAINT-PhD delivery system (Synvolux Therapeutics, Leiden, Netherlands). Complexes of peptide (µg) with SAINT-PhD (µL) were prepared at appropriate ratios corresponding to the approximate µM concentrations indicated. For each protein sample, complexes were prepared as follows: for the treatment of a 24-well plate, the appropriate amount of each peptide was diluted in HBS, then SAINT-PhD was pipetted into the solution without vortexing; then, the mixture was incubated for 5 min at room temperature, and filled up to 500 µL with serum-free medium. The culture medium was aspirated from the cells, the SAINT-PhD/peptide complex was added to the wells and incubated 4 h (37 °C, 5% CO2). Afterward, complete RPMI was added to reach the appropriate volume for maintaining the cell culture for the duration of the experiments.
Cell growth was determined using a modified crystal violet assay. On selected days, the tissue culture medium was removed, and the cell monolayer fixed with methanol and stained with 0.2% crystal violet solution in 20% methanol for at least 30 min. After being washed several times with distilled water to remove excess dye, the cells were left to dry. The incorporated dye was solubilized in acidified isopropanol (1N HCl: 2-propanol, 1:10). After appropriate dilution, absorbance was determined spectrophotometrically at 540 nm. The extracted dye was proportional to cell biomass. The percentage of cytotoxicity was calculated by comparing the absorbance of cultures exposed to the drug to unexposed (control) cultures.

CC(C)C[C@@H]1NC(=O)[C@@H](CCC(N)=O)NC(=O)[C@@H](NC(=O)[C@H](CO)NC(=O)[C@@H](N)CC(C)C)CSSC[C@@H](C(=O)N[C@@H](CCCNC(=N)N)C(=O)O)NC(=O)[C@H](Cc2ccc(O)cc2)NC1=O [Leu-Ser-c[Cys-D-Gln-Leu-Tyr-Cys-]Arg]
ring closure, yield after HPLC ([1]; from H-Leu-Ser-Cys-dGln-Leu-Tyr-Cys-Arg-OH, 17-membered ring, 1.01 mM): 29%

CC(C)C[C@@H]1NC(=O)[C@@H](CCC(N)=O)NC(=O)[C@@H](NC(=O)[C@H](CO)NC(=O)[C@@H](N)CC(C)C)CSSCCNC(=O)[C@H](CCCNC(=N)N)NC(=O)[C@H](CCC(N)=O)NC(=O)[C@H](Cc2ccc(O)cc2)NC1=O [Leu-Ser-c[Cys-D-Gln-Leu-Tyr-Gln-Arg-CAM-]]
ring closure, yield after HPLC ([1]; from H-Leu-Ser-Cys-dGln-Leu-Tyr-Gln-Arg-NHCH2CH2SH, 23-membered ring, 0.94 mM): 13%

CC(C)C[C@@H]1NC(=O)[C@@H](CCC(N)=O)NC(=O)[C@@H](NC(=O)[C@H](CO)NC(=O)[C@@H](N)CC(C)C)CSSC[C@@H](C(=O)O)NC(=O)[C@H](CCC(N)=O)NC(=O)[C@H](Cc2ccc(O)cc2)NC1=O [Leu-Ser-c[Cys-D-Gln-Leu-Tyr-Gln-Cys-]]
ring closure, yield after HPLC ([1]; from H-Leu-Ser-Cys-dGln-Leu-Tyr-Gln-Cys-OH, 20-membered ring, 1.04 mM): 18%

CC(C)C[C@@H]1NC(=O)[C@H](CCC(N)=O)NC(=O)[C@@H](NC(=O)[C@H](CO)NC(=O)[C@@H](N)CC(C)C)CSSCCNC(=O)[C@H](CCCNC(=N)N)NC(=O)[C@H](CCC(N)=O)NC(=O)[C@H](Cc2ccc(O)cc2)NC1=O [Leu-Ser-c[Cys-Gln-Leu-Tyr-Gln-Arg-CAM-]]
ring closure, yield after HPLC ([1]; from H-Leu-Ser-Cys-Gln-Leu-Tyr-Gln-Arg-NHCH2CH2SH, 23-membered ring, 0.94 mM): 15%

CC(C)C[C@@H]1NC(=O)[C@H](CCC(N)=O)NC(=O)[C@H](C)NC(=O)[C@@H](NC(=O)[C@@H](N)CC(C)C)CSSC[C@@H](C(=O)O)NC(=O)[C@H](CCC(N)=O)NC(=O)[C@H](Cc2ccc(O)cc2)NC1=O [Leu-c[Cys-Ala-Gln-Leu-Tyr-Gln-Cys]]
ring closure, yield after HPLC ([1]; from H-Leu-Cys-Ala-Gln-Leu-Tyr-Gln-Cys-OH, 23-membered ring, 1.06 mM): 30%

CC(C)C[C@@H]1NC(=O)[C@H](CCC(N)=O)NC(=O)[C@@H]2CCCN2C(=O)[C@@H](NC(=O)[C@@H](N)CC(C)C)CSSC[C@@H](C(=O)N[C@@H](CCC(N)=O)C(=O)N[C@@H](CCCNC(=N)N)C(=O)O)NC1=O [Leu-c[Cys-Pro-Gln-Leu-Cys-]Gln-Arg]
ring closure, yield after HPLC ([1]; from H-Leu-Cys-Pro-Gln-Leu-Cys-Gln-Arg-OH, 17-membered ring, 1.04 mM): 25%

CC(C)C[C@@H]1NC(=O)[C@H](CCC(N)=O)NC(=O)[C@@H]2CCCN2C(=O)[C@@H](NC(=O)[C@@H](N)CC(C)C)CSSC[C@@H](C(=O)N[C@@H](CCCNC(=N)N)C(=O)O)NC(=O)[C@H](Cc2ccc(O)cc2)NC1=O [Leu-c[Cys-Pro-Gln-Leu-Tyr-Cys-]Arg]
ring closure, yield after HPLC ([1]; from H-Leu-Cys-Pro-Gln-Leu-Tyr-Cys-Arg-OH, 20-membered ring, 1.0 mM): 18%

CC(C)C[C@@H]1NC(=O)[C@H](CCC(N)=O)NC(=O)[C@@H]2CCCN2C(=O)[C@@H](NC(=O)[C@@H](N)CC(C)C)CSSCCNC(=O)[C@H](CCCNC(=N)N)NC(=O)[C@H](CCC(N)=O)NC(=O)[C@H](Cc2ccc(O)cc2)NC1=O [Leu-c[Cys-Pro-Gln-Leu-Tyr-Gln-Arg-CAM]]
ring closure, yield after HPLC ([1]; from H-Leu-Cys-Pro-Gln-Leu-Tyr-Gln-Arg-NHCH2CH2SH, 26-membered ring, 0.93 mM): 10%

CC(C)C[C@@H]1NC(=O)[C@H](CCC(N)=O)NC(=O)[C@@H]2CCCN2C(=O)[C@@H](NC(=O)[C@@H](N)CC(C)C)CSSC[C@@H](C(=O)O)NC(=O)[C@H](CCC(N)=O)NC(=O)[C@H](Cc2ccc(O)cc2)NC1=O [Leu-c[Cys-Pro-Gln-Leu-Tyr-Gln-Cys-]]
ring closure, yield after HPLC ([1]; from H-Leu-Cys-Pro-Gln-Leu-Tyr-Gln-Cys-OH, 23-membered ring, 1.03 mM): 22%

CC(C)C[C@@H]1NC(=O)[C@H](CCC(N)=O)NC(=O)[C@@H](NC(=O)[C@H](CO)NC(=O)[C@@H](N)CC(C)C)CSSCCNC(=O)[C@H](CCCNC(=N)N)NC(=O)[C@H](CCC(N)=O)NC(=O)[C@H](Cc2ccc(O)cc2)NC1=O [Peptide 1, Leu-Ser-c[Cys-Gln-Leu-Tyr-Gln-Arg-CAM]] (H-LSCQLYQR-Cysteamide; disulfide 3-C)
inhibition at 400 µM ([2]; at 400 µM and r.t. under stirring): 25% | IC50 ([3]; room temperature (20–22 °C) under stirring, standard error ±20% of the value): 2120 µM

CC(C)C[C@@H]1NC(=O)[C@@H](CCC(N)=O)NC(=O)[C@@H](NC(=O)[C@H](CO)NC(=O)[C@@H](N)CC(C)C)CSSCCNC(=O)[C@H](CCCNC(=N)N)NC(=O)[C@H](CCC(N)=O)NC(=O)[C@H](Cc2ccc(O)cc2)NC1=O [Peptide 3, Leu-Ser-c[Cys-D-Gln-Leu-Tyr-Gln-Arg-CAM]] (H-LSC[dQ]LYQR-Cysteamide; disulfide 3-C)
% inhibition of hTS ([2]; at 500 µM and r.t.): inactive

CC(C)C[C@@H]1NC(=O)[C@@H](CCC(N)=O)NC(=O)[C@@H](NC(=O)[C@H](CO)NC(=O)[C@@H](N)CC(C)C)CSSC[C@@H](C(=O)O)NC(=O)[C@H](CCC(N)=O)NC(=O)[C@H](Cc2ccc(O)cc2)NC1=O [Peptide 4, Leu-Ser-c[Cys-D-Gln-Leu-Tyr-Gln-Cys]] (H-LSC[dQ]LYQC-OH; disulfide 3-8)
% inhibition of hTS ([2]; at 500 µM and r.t.): inactive | cytotoxicity (in words) (IGROV-1 cells): least active

CC(C)C[C@@H]1NC(=O)[C@@H](CCC(N)=O)NC(=O)[C@@H](NC(=O)[C@H](CO)NC(=O)[C@@H](N)CC(C)C)CSSC[C@@H](C(=O)N[C@@H](CCCNC(=N)N)C(=O)O)NC(=O)[C@H](Cc2ccc(O)cc2)NC1=O [Peptide 5, Leu-Ser-c[Cys-D-Gln-Leu-Tyr-Cys]-Arg] (H-LSC[dQ]LYCR-OH; disulfide 3-7; N-terminus assumed)
% inhibition of hTS ([2]; at 500 µM and r.t.): N.I. at 500 µM and r.t. N.I. at 500 µM and 37 °C under stirring | % inhibition of hTS ([3]; at 500 µM and 37 °C under stirring): N.I. at 500 µM and r.t. N.I. at 500 µM and 37 °C under stirring

CC(C)C[C@@H]1NC(=O)[C@H](CCC(N)=O)NC(=O)[C@@H]2CCCN2C(=O)[C@@H](NC(=O)[C@@H](N)CC(C)C)CSSC[C@@H](C(=O)N[C@@H](CCCNC(=N)N)C(=O)O)NC(=O)[C@H](Cc2ccc(O)cc2)NC1=O [Peptide 7, Leu-c[Cys-Pro-Gln-Leu-Tyr-Cys]-Arg] (H-LCPQLYCR-OH; disulfide 2-7)
inhibition at 100 µM ([2]; at 100 µM and r.t. under stirring): 59% | inhibition at 500 µM ([2]; at 500 µM and r.t.): 76% | Ki ([2]; kinetic inhibition pattern, Figure S1, read-out: apparent KI): 120 to 150 µM | cytotoxicity (in words) (IGROV-1 cells): intermediate cytotoxicities

CC(C)C[C@@H]1NC(=O)[C@H](CCC(N)=O)NC(=O)[C@@H]2CCCN2C(=O)[C@H](CO)NC(=O)[C@@H](N)CSSC[C@@H](C(=O)O)NC(=O)[C@H](CCC(N)=O)NC(=O)[C@H](Cc2ccc(O)cc2)NC1=O [c[Cys-Ser-Pro-Gln-Leu-Tyr-Gln-Cys]]
ring closure, yield after HPLC ([1]; from H-Cys-Ser-Pro-Gln-Leu-Tyr-Gln-Cys-OH, 26-membered ring, 1.06 mM): 25%
